# According to US6610516B1, “Cell culture process” (Genentech, Inc., priority 1999, dated 2003):
# What was measured:
# [1] = system: CHO cells; experiment: Cell-cycle analysis (propidium iodide flow cytometry) of rht-PA-producing CHO cell cultures; format: cell-based, Chinese Hamster; conditions: T-flasks, 37° C., thymidine 250 μg/mL; for Cells in G0/G1 phase: 3-4 days, added at inoculation: quinidine 90 μM, control 53.91%; for Cells in S phase: control 34.37%
# Source text: As used herein, a “cell-cycle inhibitor that blocks cells in the G0/G1 phase of growth” is a molecule that causes cells to accumulate in the G0/G1 phase of growth. This can be determined by cell cycle analysis, i.e., uniform suspensions of nuclei are stained with propidium iodide (PI) using the detergent-trypsin method of Vindelov et al., Cytometry, 3: 323-327 (1983) to determine relative cellular DNA content by flow cytometric analysis. Events are gated using doublet discrimination to exclude doublets, and the data are modeled using ModFit LT Cell Cycle Analysis™ software (Verity Software House).
# (§1) The quantity of cells needed for a 0.2% packed cell volume seed density was centrifuged at approximately 700×g for 10 minutes, and resuspended in 25 cm^2 T-flasks in the appropriate fresh medium for each test case. The T-flasks were set up in triplicate with 5 mL in each flask and incubated for 3 to 4 days at 37° C. and 95% air 5% CO2. Sodium butyrate was added to a concentration of 0.375 mM, 0.75 mM, or 1.5 mM at the time of inoculation for the 25 cm^2 T-flasks. Cells were also cultured in spinner flasks at volumes of 100 ml with similar butyrate concentrations to the T-flask cases. For fermentor experiments, butyrate was added on the second day of the experiments. T-flask cultures were also carried out at 33° C. and 37° C. with no butyrate additions. […] T-PA site-occupancy was analyzed using the method of Example 1.
# (§2) Cells were cultured as for the sodium butyrate experiment described in Example 2. Thymidine was dissolved in water and sterile filtered for a 33-36× stock solution. […] T-PA site-occupancy was analyzed using the method of Example 1.
# [2] = system: t-PA site occupancy at Asn-184; experiment: Type I/Type II t-PA assay (RP-HPLC) of supernatant from rht-PA-producing CHO cell cultures; format: cell-based, Chinese Hamster; conditions: for t-PA site occupancy compared to control with no cell-cycle inhibitor: 3-4 days, quinidine 90 μM, thymidine 250 μg/mL at inoculation (FIG. 9); for t-PA site-occupancy, effect of nucleotide sugar precursors: increased availability; for t-PA site-occupancy, effect of nucleotide sugar precursors / Decrease of t-PA site occupancy at 500 µM: days 4-6 (FIG. 12); for Decrease of t-PA site occupancy at 500 µM: Cricetulus griseus, CHO, 0.5 mM each; for t-PA site-occupancy, effect of further butyrate increase: 1.5 mM butyrate; for Increase of t-PA site-occupancy: 1, 10 or 100 nM hormone, day 7 (FIG. 13)
# Procedure: Type I/Type II t-PA assay:
# 1. Thaw cell culture supernatant sample (If whole broth, spin out cells in centrifuge.)
# 2. Add 2 μl freshly thawed plasminogen to 400 μl of sample.
# 3. Incubate at 37° C. for 60 minutes.
# 4. Add 20 μl freshly-thawed 1 M DTT and 400 μl 8 M guanidine-HCl/50 mM TRIS/3.2 mM EDTA solution.
# 5. Incubate at 37° C. for 15 minutes.
# 6. Transfer to vial and load 250 μl for assay on HP 1090™ HPLC using the following conditions:
# ZORBAX™ C8 column at 40° C.;
# Monitoring of eluents by fluorescence (excitation at 275 nm, emission at 340 nm);
# Running each sample with the following 70-minute method where eluent A is 0.1% trifluoroacetic acid (TFA) in water and eluent B is 0.1% TFA in acetonitrile:
# 5 to 35 min.—a linear gradient from 75% A to 60% A
# 45 min. to 70 min.—75% A to re-equilibrate the column
# Type I/Type II fragments elute after approximately 25 minutes, and peak areas are integrated to determine relative quantities.
# Recombinant ht-PA-producing CHO cells were carried in spinner flasks passaged every 3 or 4 days (at a density of 0.1% packed cell volume (PCV)) in selective medium (PS-20 basal medium supplemented with […] methotrexate, 10 mg/L recombinant human insulin (rh-insulin), 0.1 ml/L trace elements, and 0.05 ml/L lipid-ethanol). Sufficient culture was removed to seed 15 ml of medium at 0.2% PCV, and placed in a 50 ml sterile Falcon tube. The culture was centrifuged for 10 minutes at 700-1000 rpm and the supernatant was poured off. Upon addition of 15 ml of fresh selective medium, the culture was agitated gently to resuspend cells. Five ml of culture was placed in three T-25 flasks (25 cm^2 T-flasks). The caps were left loosened to allow equilibration with incubator atmosphere and the flasks were placed in a 33° C. or 31° C. incubator with 5% carbon dioxide. After 5 to 8 days of incubation, the cells were counted using a hemacytometer and/or by checking packed cell volume, and viability was checked using trypan blue. The culture was removed from the flasks, centrifuged for 10 minutes at 2000-2200 rpm, and the supernatant was assayed for rht-PA glycosylation. Alternatively to the T-25 flasks, the cells were cultured using 60-mm cell culture plates in triplicates.
# The mini-fermentor experiments were performed under standard t-PA production conditions in fed-batch mode as noted herein in 5-liter stirred tank bioreactors (Applikon, Foster City, Calif.). The temperature was shifted to 33° C. or 31° C. on day 2 of the production phase.
# as §1, §2
# All experiments were done in 60-mm culture dishes using the procedure described in Example 1 except that a Mn salt, Fe salt, nucleotide sugar precursor, or hormone was added to the growth medium during the growth phase, with Mn or Fe salt or nucleotide sugar precursor added on day 1.
# [3] = target: fibrin; conditions: in vitro; cited from earlier work
molecule,measurement,setting,value
"C=C[C@H]1C[N@@]2CC[C@H]1C[C@@H]2[C@@H](O)c1ccnc2ccc(OC)cc12 [Quinidine, quinidine]",Cells in G0/G1 phase,[1],67.34% at 84.65
same,Cells in G0/G1 phase,[1]; listed as quinidine,67%
same,Cells in S phase,[1]; quinidine 90 μM,24.11%
same,t-PA site occupancy compared to control with no cell-cycle inhibitor,"[2]; T-flasks, 37° C.",increased site occupancy
"Cc1cn([C@H]2C[C@H](O)[C@@H](CO)O2)c(=O)[nH]c1=O [Thymidine, thymidine]",Cells in G0/G1 phase,[1],32.58% at 84.60
same,Cells in G0/G1 phase,[1]; listed as thymidine,33%
same,Cells in G2-M phase,"[1]; quinidine 90 μM, control 11.72%",10.09% at 165.36
same,Cells in S phase,[1]; quinidine 90 μM,57.33%
same,t-PA site occupancy compared to control with no cell-cycle inhibitor,"[2]; T-flasks, 37° C.",decreased site occupancy
same,"t-PA site-occupancy, effect of nucleotide sugar precursors","[2]; 60-mm dishes, 37° C.",did not improve site-occupancy
NCC(=O)O [glycine],"t-PA site-occupancy, effect of nucleotide sugar precursors","[2]; 60-mm dishes, 37° C.",did not improve site-occupancy
Nc1nc2c(ncn2[C@@H]2O[C@H](CO)[C@@H](O)[C@H]2O)c(=O)[nH]1 [guanosine],Decrease of t-PA site occupancy at 500 µM,"[2]; 60-mm dishes, 37° C.",~2%
O=c1[nH]cnc2nc[nH]c12 [hypoxanthine],"t-PA site-occupancy, effect of nucleotide sugar precursors","[2]; 60-mm dishes, 37° C.",did not improve site-occupancy
"[Cl][Mn][Cl] [manganese, MnCl2]",Increase of t-PA Type I content (site-occupancy) over 3 nM control,"[2]; MnCl2 10 nM-100 μM, 60-mm dishes, 37° C., days 4-6 (FIG. 10)",about 2.5%
CCCC(=O)[O-].[Na+] [sodium butyrate],Increase of Type I content compared to no butyrate,"[2]; 0.75 mM butyrate, 60-mm culture plates (FIG. 6)",about 1%
same,"t-PA site-occupancy, effect of further butyrate increase","[2]; 31° C., 60-mm culture plates (FIG. 6)",increased it
same,"t-PA site-occupancy, effect of further butyrate increase","[2]; 37° C. and 33° C., 60-mm culture plates (FIG. 6)",lowered site-occupancy
same,"t-PA site-occupancy, effect of butyrate","[2]; 0.375 to 1.5 mM at inoculation, T-flasks, 37° C. (FIG. 5)",increased t-PA site-occupancy
same,"Type I content, effect of increasing butyrate from 0.75 to 1.5 mM","[2]; 5-liter bioreactors, days 5-7, 37° C. and 33° C. (FIG. 7)",decreased the Type I content
N[C@@H](Cc1cc(I)c(Oc2cc(I)c(O)c(I)c2)c(I)c1)C(=O)O [thyroxine],Increase of t-PA site-occupancy,"[2]; 60-mm dishes, 37° C.",about 2%
N[C@@H](Cc1cc(I)c(Oc2ccc(O)c(I)c2)c(I)c1)C(=O)O [tri-iodothyronine],Increase of t-PA site-occupancy,"[2]; 60-mm dishes, 37° C.",about 2%
O=c1ccn([C@@H]2O[C@H](CO)[C@@H](O)[C@H]2O)c(=O)[nH]1 [uridine],Decrease of t-PA site occupancy at 500 µM,"[2]; 60-mm dishes, 37° C.",~2%
ferric citrate,Increase of t-PA site occupancy,"[2]; 10-100 μM ferric citrate, 60-mm dishes, 37° C., days 4-6 (FIG. 11)",up to 4%
"t-PA: human tissue-type plasminogen activator, recombinant, produced in CHO cells; mixture of Type I and Type II glycoforms",Kd of binding to fibrin,[3],in the μM range
